Data taken from US20130116225A1, “METHOD FOR TREATING HEMATOLOGICAL CANCERS” (NIIKI PHARMA INC., priority 2010, published 2013).
“Also recorded” adds a separate entry of the source. Read-outs that look alike come from different tables or passages of the source.

Tests used:
[1] = tested on: RPMI-8226 multiple myeloma cells; assay: Anti-proliferation assay, Cell Titer-Glo (Example 3); format: cell-based, human; details: 96 hours total culture
Method: (§1) To determine the growth inhibitory activity of tris(8-quinolinolato)gallium(III) and lenalidomide, a representative panel of human multiple myeloma tumor cell lines (OPM-2, RPMI-8226, NCI-H929 and ARH-77) were tested with the compounds in anti-proliferation assays. Specifically, the human tumor cells were placed in a 96-well microculture plate at the appropriate density for 96 hours of total growth time. After 24 hours of incubation in a humidified incubator at 37° C. with 5% CO2 and 95% air, serially diluted test agents in growth medium were added to each well. After 96 total hours of culture in a CO2 incubator, the plates were processed with Cell Titer-Glo (Promega #G7571) according to manufacturer's instructions. Luminescence was detected using a Tecan GENios microplate reader. Percent inhibition of cell growth was calculated relative to untreated control wells. All tests were performed in duplicate at each concentration level.
(§2) The IC50 value for the test agents was estimated using Prism 3.03 by curve-fitting the data using the following four parameter-logistic equation: […]
(§3) where Top is the maximal % of control absorbance, Bottom is the minimal % of control absorbance at the highest agent concentration, Y is the % of control absorbance, X is the agent concentration, IC50 is the concentration of agent that inhibits cell growth by 50% compared to the control cells, and n is the slope of the curve.

[2] = tested on: NCI-H929 multiple myeloma cells; assay: as above; format: cell-based, human
Method: as §1, §2, §3

[3] = tested on: OPM-2 multiple myeloma cells; assay: as above; format: cell-based, human; details: 96 hours total culture
Method: as §1, §2, §3

[4] = tested on: ARH-77 multiple myeloma cells; assay: as above; format: cell-based, human; details: 96 hours total culture
Method: as §1, §2, §3

BJAB lymphoma cells [5] = assay: Cell viability and proliferation, CASY Cell Counter; format: cell-based, human
Method: FIG. 1 is a graph showing cell viability and inhibition of proliferation of BJAB lymphoma cells by tris(8-quinolinolato)gallium(III), which inhibits proliferation in a dose-dependent manner up to 100% (exposure time 24 hours);
Cell viability was determined by using the CASY® Cell Counter+Analyzer System of Innovatis (Bielefeld, Germany). Settings were specifically defined for the requirements of the cells used. With this system the cell concentration can be analyzed simultaneously in three different size ranges: thus cell debris, dead cells, and viable cells could be determined in one measurement. Cells were seeded at a density of 1×10^5cells/ml and treated with different concentrations of […]; non-treated cells served as controls. After a 24-hour incubation period, cells were re-suspended completely, and 100 μl of each well were diluted in 10 ml CASYton (ready-to-use isotonic saline solution) for immediate automated counting.
In order to assess the antiproliferative effects of tris(8-quinolinolato)gallium(III), BJAB lymphoma cells were exposed to various concentrations of the drug for 24 hours. The determination of cell viability and cell count were carried out with a CASY® Cell Counter and Analyzer System.

[6] = tested on: CCRF-CEM, Jurkat, MOLT-4 cell lines; details: read-out: IC50, inhibiting cell growth and proliferation; all cell lines of Table 1; 48 hours with drug; XTT
Method: Cells have been expanded under appropriate culture conditions until sufficient cells were available for the assay. Adherent cells were trypsinated. Cell count and viability of the cells were determined (Casy T T, Schärfe Systems). The Cells (viability >95%) were seeded in 100 μl of cell culture medium at the appropriate density of living cells into 96-well tissue culture plates. The cells were incubated at 37° C. and 5% CO2 for 24 hours.
For a negative control, 100 μl of cell culture medium were added to three wells (100% value). For a positive control all cells were deadened with phenol (0% value). The cells were incubated with the drug for further 48 hours at 37° C. and 5% CO2.
XTT assays were performed on the above treated cells. XTT is a tetrazolium salt that can be cleaved by “succinate-tetrazolium reductase”, a mitochondrial redox-system that is exclusively active in living cells. The cleavage results in a soluble formazan salt that can be quantified by colorimetric measuring at 450 nm. The intensity of the orange color is directly linked to the number of living, metabolically active cells. A concentrated stock solution (1 mg/ml PBS) of XTT (Sigma-Aldrich) was prepared, aliquoted, filtered and stored at −20° C. […] The developed formazan was quantified in an absorbance micro plate reader (Genios, Tecan) at a measurement wavelength of 450 nm and a reference wavelength of 690 nm.

BJAB lymphoma cells [7] = assay: Apoptosis induction, flow cytometric hypodiploid DNA (DNA fragmentation); format: cell-based, human; details: 72 hours
Method: FIG. 3 is a diagram showing apoptosis induction measured via flow cytometric determination of hypodiploid DNA in BJAB cells after treatment with tris(8-quinolinolato)gallium(III) for 72 hours. Data are given in % hypodiploidy (subG1)±ESD (n=3), which is consistent with the number of apoptotic cells;
DNA fragmentation on the single cell level.
To quantify the induction of apoptosis triggered by tris(8-quinolinolato)gallium(III) we determined the DNA fragmentation (hypodiploidy) as a characteristic effect of apoptotic cell death. The procedure was conducted by flow cytometric measurement of hypodiploid DNA after incubating lymphoma cells (BJAB) for 72 hours with the agent. Extensive apoptosis induction could be reached even in low concentrations of the agent (AC50: ˜1 μM), seen in FIG. 3.

[8] = tested on: caspase-9 and caspase-3 in BJAB cells; assay: Western blot analysis of caspase activation; format: cell-based, human; details: 24 hours
Method: FIG. 6 includes chromatograms showing Western blot analysis of tris(8-quinolinolato)gallium(III)-treated BJAB cells. Epirubicin was used as a positive control. After incubation for 24 hours the protein extracts were fractionated on a denaturating 4-20% polyacrylamide gel, transferred to nitrocellulose and detected with anti-caspase-31-9 and anti-β-actin antibody. A: caspase-9 (procaspase: 47 kDa; cleavage product: 37 kDa), B: caspase-3 (procaspase: 32 kDa; cleavage products: 18 and 17 kDa), C: β-actin (42 kDa);
For Western blot analysis, cytosolic protein ([…]) was loaded in each lane and was separated by sodium dodecylsulfate (SDS) PAGE. After blotting of proteins onto nitrocellulose membranes (Schleicher and Schuell, Dassel, Germany), the membrane was blocked for 1 h in PBST (PBS containing 0.05% Tween-20) containing 3% nonfat dry milk and incubated with primary antibody overnight at 4° C. After the membrane had been washed three times in PBST, secondary antibody in PBST was applied for 1 h. […]
Further evidence for apoptosis via the intrinsic pathway was obtained by investigating the consecutive activation of caspase-9 and -3 by Western blot analysis. […] The activation of both caspases by proteolytic cleavage was determined after treatment of BJAB cells with tris(8-quinolinolato)gallium(III). […]

BJAB lymphoma cells [9] = assay: LDH release cytotoxicity assay; format: cell-based, human; details: 1 hour exposure
Method: Cytotoxicity of the different drugs was measured by the release of lactate dehydrogenase (LDH). After incubation with different concentrations of tris(8-quinolinolato)gallium(III) for 1 hour, LDH activity released by BJAB cells was measured in the cell culture supernatants using the Cytotoxicity Detection Kit from Boehringer Mannheim® (Mannheim, Germany). The supernatants were centrifuged at 1500 rpm for 5 min. 20 μl of cell-free supernatants were diluted with 80 μl phosphate-buffered saline (PBS), and 100 μl reaction mixture containing 2-[4-iodophenyl]-3-[4-nitrophenyl]-5-phenyltetrazolium chloride (INT), sodium lactate, […] and diaphorase were added. Then, time-dependent formation of the reaction product was quantified photometrically at 490 nm. The maximum amount of LDH activity released by the cells was determined after lysis of the cells using 0.1% Triton X-100 in culture medium and set to represent 100% cell death.
Unspecific cytotoxic effects of the agent such as necrosis could be excluded by determination of extra cellular lactate dehydrogenase (LDH) via ELISA detection.

[10] = tested on: Harakiri gene expression in BJAB cells; assay: Real-time PCR apoptosis gene expression array; format: cell-based, human; details: 2.5 μM, 8 hours
Method: (§4) For the analysis of the differential expression of multiple genes involved in the different apoptosis pathways, apoptosis-specific RT2 profiler (polymerase chain reaction) PCR expression arrays (SuperArray PAHS-012; SABiosciences Corporation, Frederick, Md., USA) was used according to the manufacturer's instructions. Total RNA was extracted from BJAB cells treated with […] for 8 hours, and RNAs were treated with DNase I (2 U/μl) to eliminate possible genomic DNA contamination. Total RNA (700 ng/μl) was then used as a template for the synthesis of a cDNA probe and subjected to quantitative real-time PCR SuperArray analysis according to the manufacturer's instructions using a LightCycler480 (Roche Diagnostics). The means of nine housekeeping genes were used to normalize the hybridization signals. Results were analyzed using SuperAnay Analyser Software, and the data are given in-fold expression of the respective genes as compared with control cells incubated in vehicle-containing medium for 8 hours.
(§5) Changes of transcript levels of apoptosis relevant genes were analyzed in RNA isolated from BJAB cells after 8 hours of incubation with 2.5 μM tris(8-quinolinolato)gallium(III). […] Harakiri (Hrk) is a pro-apoptotic Bcl-2 homology domain 3-only protein of the Bcl-2 family.

[11] = tested on: caspase-5 gene expression in BJAB cells; assay: Real-time PCR apoptosis gene expression array; format: cell-based, human; details: 2.5 μM, 8 hours
Method: as §4, §5

[12] = tested on: vincristine-resistant Nalm-6 cells; details: vincristine-resistant Nalm-6, P-gp overexpressing; 72 hours
Method: (§7) After 72 hours of incubation with different concentrations of the agent, DNA fragmentation was measured via FACS scan analysis. […] Values of DNA fragmentation are given as percentages of cells with hypodiploid DNA±s.d. (n=3);
(§8) Apoptotic cell death was determined by a modified cell cycle-analysis, which detects. DNA fragmentation on the single cell level. […] After a 72-hour incubation period at a temperature of 37° C., cells were collected by centrifugation at 1500 rpm for 5 min, washed with PBS at 4° C. and fixed in PBS/2% (v/v) formaldehyde on ice for 30 minutes. After fixation, cells were pelleted, incubated with ethanol/PBS (2:1, v/v) for 15 minutes, pelleted and resuspended in PBS containing 40 μg/ml RNase. RNA was digested for 30 minutes at a temperature of 37° C., after which the cells were pelleted again and finally resuspended in PBS containing 50 μg/ml propidium iodide. Nuclear DNA fragmentation was quantified by flow cytometric determination of hypodiploid DNA. Data were collected and analyzed using a FACScan instrument (Becton Dickinson, Heidelberg, Germany) equipped with CELL Quest software. Data are given in percent hypodiploidy (subG1), which reflects the number of apoptotic cells.

[13] = tested on: daunorubicin-resistant Nalm-6 cells; details: daunorubicin-resistant Nalm-6, P-gp overexpressing; 72 hours
Method: as §7, §8

MV4-11 leukemia cells = assay: Cell growth inhibition, Cell Titer-Glo (Example 4); format: cell-based, human; details: 96 total hours of culture
Method: The human leukemia cell line MV4-11 cells were placed in a 96-well microculture plate (Costar white, flat bottom #3917) in a total volume of 90 μL/well. After 24 hours of incubation in a humidified incubator at 37° C. with 5% CO2 and 95% air, 10 μL of 10×, serially diluted tris(8-quinolinolato)gallium(III) in growth medium was added to each well. After 96 total hours of culture in a CO2 incubator, the plated cells and Cell Titer-Glo (Promega #G7571) reagents were brought to room temperature to equilibrate for 30 minutes. 100 μL of Cell Titer-Glo® reagent was added to each well. The plate was shaken for 2 minutes and then left to equilibrate for 10 minutes before reading luminescence on the Tecan GENios microplate reader. Percent inhibition of cell growth was calculated relative to untreated control wells. All tests were performed in duplicate at each concentration level. The IC50 value for the test agent was estimated using Prism 3.03 by curve-fitting the data using the following four parameter-logistic equation: […]
as §3, with “minimal” for “minimal %”, “curve. […]” for “curve.”

[14] = tested on: DoHH2 Human EBV-negative B Cell Lymphoma cells; assay: Anti-proliferation assay, Cell Titer-Glo (Example 6); format: cell-based; details: 96 total hours of culture
Method: (§6) To determine the antiproliferative activity of tris(8-quinolinolato)gallium(III) in human lymphoma tumor cell lines, anti-proliferation assays were conducted in the DoHH2. Granta 519, and WSU-DLCL2 cell lines. The DoHH2 Human EBV-negative B Cell Lymphoma cells were seeded with 5,000 cells/well and grown in RPMI1640 medium containing 20% FBS, and 2 mM L-Glutamine. The Granta 519 Human Mantle Cell Lymphoma cells were seeded with 10,000 cells/well and grown in DMEM medium containing 10% FBS, and 2 mM L-Glutamine. The WSU-DLCL2 Human B Cell Lymphoma cells were seeded with 5,000 cells/well and grown in RPMI1640 medium containing 10% FBS, and 2 mM L-Glutamine. Specifically, the human tumor cells were placed in a 96-well microculture plate at the appropriate density for 96 hours of total growth time. After 24 hours of incubation in a humidified incubator at 37° C. with 5% CO2 and 95% air, serially diluted test agents in growth medium were added to each well. After 96 total hours of culture in a CO2 incubator, the plates were processed with Cell Titer-Glo (Promega #G7571) according to manufacturer's instructions. Luminescence was detected using a Tecan GENios microplate reader. Percent inhibition of cell growth was calculated relative to untreated control wells. All tests were performed in duplicate at each concentration level. The IC50 value for the test agents was estimated using Prism 3.03 by curve-fitting the data using the four parameter-logistic equation as described in Example 4 above. […] It is known that WSU-DLCL2 cells are resistant to the CHOP (cyclophosphamide, adriamycin, vincristine, prednisone) regimen. See Levi et al., Cancer Chemother. Pharmacal., (published online Aug. 31, 2010). Thus, tris(8-quinolinolato)gallium(III) is also active against lymphoma cells resistant to drugs. such as cyclophosphamide, adriamycin, vincristine, prednisone.

[15] = tested on: Granta 519 Human Mantle Cell Lymphoma cells; assay: as above; format: cell-based; details: 96 total hours of culture
Method: as §6

[16] = tested on: WSU-DLCL2 Human B Cell Lymphoma cells; assay: as above; format: cell-based; details: 96 total hours of culture
Method: as §6

With Nc1cccc2c1CN(C1CCC(=O)NC1=O)C2=O (stereo not drawn) [Lenalidomide, lenalidomide, reference compound] as the molecule, how does the IC50 [1] read?
Its IC50 is “Inactive”.

And the IC50 ([2]; Homo sapiens, NCI-H929, 96 hours total culture)?
Its IC50 is 5.28 µM.

And the IC50 ([3]; Homo sapiens)?
The IC50 was 5.83 µM.

What about the IC50 [4] of the same molecule?
The IC50 was “Inactive”.

Which “concentration giving complete block of proliferation” value (BJAB lymphoma cells [5]; 24 hours) does the source give for [Ga+3].[O-]c1cccc2cccnc12.[O-]c1cccc2cccnc12.[O-]c1cccc2cccnc12 [tris(8-quinolinolato)gallium(III)] here?
The value was ≥ 2 µM.

What about the IC50 (BJAB lymphoma cells [5]; 24 hours, read-out: IC50, inhibition of proliferation) of the same molecule?
Its IC50 is < 1 µM.

What about the “inhibition of proliferation, maximal” value (BJAB lymphoma cells [5]; exposure time 24 hours) of the same molecule?
Its value is “up to 100%”.

And the IC50 [6]?
The IC50 was < 3.5 µM.

And the AC50 (BJAB lymphoma cells [7])?
Its AC50 is ~1 µM.

And the CC50 (BJAB lymphoma cells [7]; read-out: LC50, apoptosis by DNA fragmentation)?
The CC50 was ~1 µM.

What about the “processing of procaspase-3 and procaspase-9” value [8] of the same molecule?
The value was “induces processing of procaspase-3 (p32) and procaspase-9 (p47)”.

And the “LDH release (unspecific cytotoxicity, necrosis)” value (BJAB lymphoma cells [9])?
The value was “negligible; also recorded: no significant LDH release”.

What about the “Harakiri gene expression, upregulation” value [10] of the same molecule?
The value was 29 fold.

What about the “caspase-5 gene expression, upregulation” value [11] of the same molecule?
The value was 118 fold.

What about the “apoptosis (DNA fragmentation) in resistant cells versus control cells” value [12] of the same molecule?
Its value is “higher apoptotic amounts in the resistant cells compared to the control cells”.

And the IC50 ([1]; read-out: IC50)?
Its IC50 is 0.82 µM.

And the IC50 ([2]; 96 hours total culture)?
Its IC50 is 1.57 µM.

What about the IC50 [3] of the same molecule?
The IC50 was 0.74 µM.

And the IC50 ([4]; read-out: IC50)?
Its IC50 is 0.89 µM.

And the “apoptosis (DNA fragmentation) in resistant cells versus control cells” value [13]?
The value was “higher apoptotic amounts in the resistant cells compared to the control cells”.

What about the IC50 (MV4-11 leukemia cells) of the same molecule?
The IC50 was 1.44 µM.

And the IC50 [14]?
The IC50 was 0.213 µM.

What about the IC50 [15] of the same molecule?
Its IC50 is 2.9 µM.

What about the IC50 [16] of the same molecule?
The IC50 was 1.47 µM.
